Assay [1] deals with T1, Alpha-2A adrenergic receptor (Homo sapiens, UniProt P08913).
T1 sequence (P08913 whole entry): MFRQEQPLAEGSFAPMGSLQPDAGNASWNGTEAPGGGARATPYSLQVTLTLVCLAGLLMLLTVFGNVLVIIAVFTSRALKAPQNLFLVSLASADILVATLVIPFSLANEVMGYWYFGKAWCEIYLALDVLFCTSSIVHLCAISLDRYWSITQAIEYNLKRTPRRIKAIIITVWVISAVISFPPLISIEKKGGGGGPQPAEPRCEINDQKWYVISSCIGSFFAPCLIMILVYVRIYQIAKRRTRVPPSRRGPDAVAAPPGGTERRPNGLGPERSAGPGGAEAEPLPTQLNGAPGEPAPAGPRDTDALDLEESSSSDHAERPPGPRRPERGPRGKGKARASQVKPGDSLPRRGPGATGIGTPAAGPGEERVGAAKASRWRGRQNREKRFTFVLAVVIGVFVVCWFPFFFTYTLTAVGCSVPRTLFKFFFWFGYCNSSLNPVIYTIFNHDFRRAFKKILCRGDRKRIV

Assay [2] concerns the target D(1A) dopamine receptor (Homo sapiens, UniProt P21728).
Assay [3] has as its target T2, Thromboxane A2 receptor (Homo sapiens, UniProt P21731).
T2 sequence (P21731 whole entry): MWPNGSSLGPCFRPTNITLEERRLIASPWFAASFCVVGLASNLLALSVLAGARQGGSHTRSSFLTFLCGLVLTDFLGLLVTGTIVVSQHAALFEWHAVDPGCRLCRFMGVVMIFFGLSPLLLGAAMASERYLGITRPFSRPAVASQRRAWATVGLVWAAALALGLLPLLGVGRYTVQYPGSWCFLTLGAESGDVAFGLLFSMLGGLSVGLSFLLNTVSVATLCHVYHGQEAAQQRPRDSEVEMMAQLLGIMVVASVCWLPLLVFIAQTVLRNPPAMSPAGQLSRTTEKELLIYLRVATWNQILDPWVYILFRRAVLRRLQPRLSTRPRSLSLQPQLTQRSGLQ
It is filed as functional, cell-based.

Assay [4] has as its target T3, Muscarinic acetylcholine receptor M2 (Homo sapiens, UniProt P08172).
T3 sequence (P08172 whole entry): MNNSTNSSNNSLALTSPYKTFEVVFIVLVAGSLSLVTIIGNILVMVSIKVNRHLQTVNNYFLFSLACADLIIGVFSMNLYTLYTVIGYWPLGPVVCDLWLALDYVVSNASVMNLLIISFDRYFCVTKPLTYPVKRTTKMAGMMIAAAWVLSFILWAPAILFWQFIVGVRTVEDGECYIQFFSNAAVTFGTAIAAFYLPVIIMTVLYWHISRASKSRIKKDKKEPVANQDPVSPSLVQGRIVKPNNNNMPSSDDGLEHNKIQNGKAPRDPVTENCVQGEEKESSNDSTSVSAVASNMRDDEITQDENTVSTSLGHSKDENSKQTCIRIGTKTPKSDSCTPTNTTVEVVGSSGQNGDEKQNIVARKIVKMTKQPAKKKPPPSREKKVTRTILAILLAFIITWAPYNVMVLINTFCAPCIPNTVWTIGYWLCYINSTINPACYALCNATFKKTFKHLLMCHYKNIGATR

Assay [5] addresses 5-hydroxytryptamine receptor 2B (Homo sapiens, UniProt P41595). Format: functional, cell-based.
Assay [6] concerns the target T4, Progesterone receptor (Homo sapiens, UniProt P06401).
T4 sequence (P06401 whole entry): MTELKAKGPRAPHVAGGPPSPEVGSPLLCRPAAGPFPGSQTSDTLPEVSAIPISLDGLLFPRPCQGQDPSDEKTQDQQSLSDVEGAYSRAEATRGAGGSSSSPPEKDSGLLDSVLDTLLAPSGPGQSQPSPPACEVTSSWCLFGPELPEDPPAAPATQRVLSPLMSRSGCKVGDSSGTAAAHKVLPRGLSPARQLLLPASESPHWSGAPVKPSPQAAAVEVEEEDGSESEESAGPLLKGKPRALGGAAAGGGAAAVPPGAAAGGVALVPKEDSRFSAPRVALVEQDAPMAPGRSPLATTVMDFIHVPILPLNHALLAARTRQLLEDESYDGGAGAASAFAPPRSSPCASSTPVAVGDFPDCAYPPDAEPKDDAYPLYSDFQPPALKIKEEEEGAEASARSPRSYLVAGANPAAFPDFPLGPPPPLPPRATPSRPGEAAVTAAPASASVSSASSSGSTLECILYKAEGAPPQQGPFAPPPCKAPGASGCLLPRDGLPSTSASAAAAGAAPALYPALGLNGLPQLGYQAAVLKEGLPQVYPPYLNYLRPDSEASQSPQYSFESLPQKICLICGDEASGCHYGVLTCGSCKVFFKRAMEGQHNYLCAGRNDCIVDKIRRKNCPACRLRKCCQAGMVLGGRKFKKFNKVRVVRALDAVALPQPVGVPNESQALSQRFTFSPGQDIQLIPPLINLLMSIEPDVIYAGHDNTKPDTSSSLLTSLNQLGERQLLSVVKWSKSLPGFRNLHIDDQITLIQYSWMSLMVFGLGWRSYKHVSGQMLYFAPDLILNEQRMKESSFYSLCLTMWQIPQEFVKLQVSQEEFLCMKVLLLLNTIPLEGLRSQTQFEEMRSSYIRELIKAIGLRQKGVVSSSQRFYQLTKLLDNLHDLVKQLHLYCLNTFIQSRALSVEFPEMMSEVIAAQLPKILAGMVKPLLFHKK
Note: assay procedure not described here.

Sequence of D(1A) dopamine receptor (P21728 whole entry): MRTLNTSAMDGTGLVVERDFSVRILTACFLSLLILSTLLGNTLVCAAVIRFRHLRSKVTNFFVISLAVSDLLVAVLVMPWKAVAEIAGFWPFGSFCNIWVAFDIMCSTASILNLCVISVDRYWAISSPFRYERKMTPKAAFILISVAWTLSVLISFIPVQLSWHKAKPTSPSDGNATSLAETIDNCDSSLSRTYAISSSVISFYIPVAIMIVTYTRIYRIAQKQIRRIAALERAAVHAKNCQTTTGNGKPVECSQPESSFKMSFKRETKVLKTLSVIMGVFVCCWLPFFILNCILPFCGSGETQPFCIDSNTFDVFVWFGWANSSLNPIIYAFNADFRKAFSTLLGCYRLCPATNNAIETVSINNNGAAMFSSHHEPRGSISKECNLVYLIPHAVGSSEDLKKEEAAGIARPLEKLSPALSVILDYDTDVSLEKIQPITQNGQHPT
Sequence of 5-hydroxytryptamine receptor 2B (P41595 whole entry): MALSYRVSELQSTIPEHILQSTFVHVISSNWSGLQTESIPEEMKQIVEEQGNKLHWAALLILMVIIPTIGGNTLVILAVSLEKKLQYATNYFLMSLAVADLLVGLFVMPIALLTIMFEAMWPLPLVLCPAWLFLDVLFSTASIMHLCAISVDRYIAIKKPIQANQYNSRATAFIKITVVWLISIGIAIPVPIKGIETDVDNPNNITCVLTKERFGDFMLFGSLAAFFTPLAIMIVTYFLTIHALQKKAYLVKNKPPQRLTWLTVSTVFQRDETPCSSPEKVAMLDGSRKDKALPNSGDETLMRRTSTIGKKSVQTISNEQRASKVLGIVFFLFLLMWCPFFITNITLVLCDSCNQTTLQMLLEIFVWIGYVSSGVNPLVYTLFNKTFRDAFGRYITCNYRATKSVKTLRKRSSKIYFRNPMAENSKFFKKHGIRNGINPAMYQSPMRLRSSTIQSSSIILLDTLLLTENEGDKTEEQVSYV

Consider `O=C1c2c(O)c(=O)ccn2N([C@@H]2c3ccccc3SCc3c2ccc(F)c3F)[C@@H]2COCCN12` [BALOXAVIR], for which the AC50 in assay [1], in assay [2], in assay [3], in assay [4], in assay [5] and in assay [6] was > 30 µM each time.

For the compound `C(=N\NC1=NCCN1)/c1c2ccccc2c(/C=N/NC2=NCCN2)c2ccccc12` [BISANTRENE], the AC50 in assay [1] was 11.6 µM; in assay [2], 5.24 µM; in assay [3], > 30 µM; in assay [4], 2.74 µM; in assay [5] it was > 30 µM; in assay [6], > 30 µM.

`CCO/N=C(\C(=O)N[C@@H]1C(=O)N2C(C(=O)[O-])=C(Sc3nc(-c4cc[n+](C)cc4)cs3)CS[C@H]12)c1nsc(N)n1` [CEFTAROLINE]: the AC50 in assay [1], in assay [2], in assay [3], in assay [4], in assay [5] and in assay [6] was > 30 µM in each case.

As for `Cc1cc(O)cc(C)c1Cl` [CHLOROXYLENOL], the AC50 in assay [1], in assay [2], in assay [3], in assay [4], in assay [5] and in assay [6] was > 30 µM throughout.

In the case of `O=C1c2ccccc2C(=O)C1C(=O)C(c1ccccc1)c1ccccc1` [DIPHENADIONE], the AC50 in assay [1] is > 30 µM; in assay [2], > 30 µM; in assay [3], 7.02 µM; in assay [4], > 30 µM; in assay [5] it was > 30 µM; in assay [6], > 30 µM.

As to `CCC(=O)O[C@H]1[C@H](O[C@@H]2[C@@H](C)[C@H](O[C@H]3C[C@@](C)(OC)[C@@H](O)[C@H](C)O3)[C@@H](C)C(=O)O[C@H](CC)[C@@](C)(O)[C@H](O)[C@@H](C)C(=O)[C@H](C)C[C@@]2(C)O)O[C@H](C)C[C@@H]1N(C)C` [ERYTHROMYCIN PROPIONATE], the AC50 in assay [1] was > 30 µM; in assay [2], > 30 µM; in assay [3], > 30 µM; in assay [4], > 30 µM; in assay [5], > 30 µM; in assay [6], 10.4 µM.

Regarding `CCOC(=O)c1ccc(O)cc1` [ETHYLPARABEN], the AC50 in assay [1], in assay [2], in assay [3], in assay [4], in assay [5] and in assay [6] was > 30 µM throughout.

For the compound `O=C1[C@H](CC[C@H](O)c2ccc(F)cc2)[C@@H](c2ccc(O)cc2)N1c1ccc(F)cc1` [EZETIMIBE], the half-maximal activity concentration (AC50) was > 30 µM in assay [1]; 29.4 µM in assay [2]; > 30 µM in assay [3]; > 30 µM in assay [4]; > 30 µM in assay [5]; 24.6 µM in assay [6].

Take `O=C(COc1ccc(Cl)cc1)N1CCN(Cc2ccc3c(c2)OCO3)CC1` [FIPEXIDE]: the AC50 in assay [1] was 11.1 µM; in assay [2], > 30 µM; in assay [3], > 30 µM; in assay [4] it was > 30 µM; in assay [5], > 30 µM; in assay [6] it was > 30 µM.

As to `Cc1c(-c2ccccc2)oc2c(C(=O)OCCN3CCCCC3)cccc2c1=O` [FLAVOXATE], the AC50 is 13.9 µM in assay [1]; > 30 µM in assay [2]; > 30 µM in assay [3]; 3.39 µM in assay [4]; > 30 µM in assay [5]; > 30 µM in assay [6].

Turning to `CCC(=O)c1c(O)cc(O)cc1O` [FLOPROPIONE], the AC50 in assay [1], in assay [2], in assay [3], in assay [4], in assay [5] and in assay [6] was > 30 µM each time.

On to `CC1(C)O[C@@H]2C[C@H]3[C@@H]4C[C@H](F)C5=CC(=O)CC[C@]5(C)[C@H]4[C@@H](O)C[C@]3(C)[C@]2(C(=O)CO)O1` [FLURANDRENOLIDE], for which the AC50 is > 30 µM in assay [1]; > 30 µM in assay [2]; > 30 µM in assay [3]; > 30 µM in assay [4]; > 30 µM in assay [5]; 0.0666 µM in assay [6].

Consider `OC[C@@H](O)[C@@H](O)[C@H](O)[C@H](O)CO` [MANNITOL], for which the concentration at half-maximal activity (AC50) in assay [1], in assay [2], in assay [3], in assay [4], in assay [5] and in assay [6] was > 30 µM in each case.

Regarding `CN1CCCC(CN2c3ccccc3Sc3ccccc32)C1` (centres undefined) [MEPAZINE], the AC50 was 8.25 µM in assay [1]; 9.78 µM in assay [2]; > 30 µM in assay [3]; 0.347 µM in assay [4]; > 30 µM in assay [5]; > 30 µM in assay [6].

On to `Sc1ncnc2nc[nH]c12` [MERCAPTOPURINE ANHYDROUS], for which the AC50 in assay [1], in assay [2], in assay [3], in assay [4], in assay [5] and in assay [6] was > 30 µM each time.

Turning to `C[N+]1(C)[C@@H]2C[C@@H](OC(=O)[C@H](CO)c3ccccc3)C[C@H]1[C@@H]1O[C@@H]12` [METHSCOPOLAMINE], the AC50 in assay [1], in assay [2], in assay [3], in assay [5] and in assay [6] was > 30 µM throughout.

In the case of `CC(=O)Oc1c(C)cc(OCC(O)CNC(C)C)c(C)c1C` (centres undefined) [METIPRANOLOL], the AC50 in assay [1], in assay [2], in assay [3], in assay [4], in assay [5] and in assay [6] was > 30 µM in each case.

For `O=C1CC[C@@]2(O)[C@H]3Cc4ccc(O)c5c4[C@@]2(CCN3CC2CC2)[C@H]1O5` [NALTREXONE], the AC50 in assay [1], in assay [2], in assay [3], in assay [4], in assay [5] and in assay [6] was > 30 µM throughout.

For the compound `CC(N/C(=N\C#N)Nc1ccncc1)C(C)(C)C` (centres undefined) [PINACIDIL ANHYDROUS], the concentration at half-maximal activity (AC50) in assay [1], in assay [2], in assay [3], in assay [4], in assay [5] and in assay [6] was > 30 µM throughout.

For the compound `CC(O)CO` (centres undefined) [PROPYLENE GLYCOL], the AC50 in assay [1], in assay [2], in assay [3], in assay [4], in assay [5] and in assay [6] was > 30 µM in each case.

In general, AC50 refers to the concentration giving half of the maximal activity seen. The low end stands for greater potency, the high end for weaker potency.

These data come from ChEMBL document CHEMBL5291721, “A preclinical secondary pharmacology resource illuminates target-adverse drug reaction associations of marketed drugs” (Nat Commun, 2023).
